Source: patent EP0457908A1, “HYDROCHLORIDE 2,3,3a,4,5,6-HEXAHYDRO-8-CYCLOHEXYL-1H-PYRAZINO (3,2,1-j,k)CARBAZOL, METHOD OF OBTAINING IT AND A PHARMACEUTICAL PREPARATION OF ANTIDEPRESSIVE ACTION BASED ON IT” (priority 1989, dated 1991)
Counter-ions that a name gives are not always drawn.

Legend:
white mice [1] = test: Porsolt's swimming behaviour test (duration of immobilization); type: in vivo; conditions: for Duration of immobilization, %: distilled water = 100
Procedure: The effect of the compound according to the present invention on the duration of immobilization in Porsolt's swimming behaviour test (Porsolt et al., 1977) in experiments on white mice of both sexes with a mass of 16-18 g. […] Sixty minutes after the last (or a single) administration of the preparations, the mice were placed into cylinders (10 cm diameter, 25 cm height) filled with water to 6 cm. The temperature of water was 21-22 °C. […] The number and duration of all stops in swimming (immobilization) over the observation period were recorded.

male white mice = test: Hyperlocomotion induced by d,l-amphetamine; type: in vivo; conditions: 10-20 minutes after d,l-amphetamine 2.5 mg/kg intraperitoneally, distilled water 1,924.5±177.6
Procedure: The influence on hyperlocomotion induced by d,l-amphetamine was studied in experiments on male white mice with a mass of 20-22 g.
The locomotive activity of the mice was recorded 10-20 minutes after administration of d,l-amphetamine for 10 minutes.

cats = test: Bioelectrical activity of the brain (electroencephalogram), cats; type: in vivo; conditions: for effect on the electroencephalogram: dose and species not given
Description: The study of the effect on the bioelectrical activity of the brain was effected in acute experiments using 8 consious cats immobilized with diplacin with a mass of 2.5-3.4 kg under conditions of a controlled breathing and 25 rabbits with a mass of 2.6-3.1 kg with chronically implanted electrodes. Recorded on an electroencephalograph was an electroencephalogram of the sensomotor, parietal and visual regions of the cerebral cortex in cats, plus that of the reticular formation of the midbrain, dorsal hippocamp and amygdala in rabbits.

white rats = test: Stereotypy induced by d,l-amphetamine; type: in vivo; conditions: distilled water = 100
Procedure: To evaluate the influence on stereotypy, the experiments were carried out on white rats of both sexes with a mass of 100-150 g. […] Stereotypy was assessed in points of from to 3 (after Janssen et al., 1967).

[2] = Pharmacokinetics: penetration into and stay in the brain tissues; conditions: in vivo
white mice [3] = test: Enhancement of the effect of 5-hydroxytryptophane (head shaking); type: in vivo; conditions: Mus musculus, po, 25 min; orally, 60 minutes prior to 5-hydroxytryptophane 50 mg/kg intraperitoneally; read 25 minutes after; read-out: ED₅₀, the dose at which head shaking were noticed in 50% of the animals
Procedure: The compound according to the present invention was tasted for the exciting effect of 5-hydroxytryptophane (head shaking).
The compound according to the present invention in the doses of 1.0, 2.5, 5.0 and 10 mg/kg was administered orally 60 minutes prior to an intraperitoneal administration of 5-hydroxytryptophane (50 mg/kg).

male rats = test: Conditional reflex of passive avoidance after amnesia (antiamnestic effect); type: in vivo; conditions: for Number of rats, %, remained on the platform for 1 minute, 2.5 hours after administration of scopolamine (1 mg/kg hypodermally): amnesia control 10±3.3, distilled water 85±2.0; for Number of rats, %, remained on the platform for 1 minute, 1 day after electric shock: electroshock alone 14.2±3.0, distilled water 85±2.0
Procedure: Also studied was the effect of the compound according to the present invention on reproduction of the memory traces upon amnesia.
The experiments were carried out using male rats of a mass of 180-220 g.
The antiamnestic effect of the compound according to the present invention was assessed by the method of a conditional reflex of a passive avoidance with a subsequent use, as amnesic factors, of an electric shock (50 mA, 0.3 ms) through ear electrodes or scopolamine (1 mg/kg hypodermally).
The learning of the conditional reflex of a passive avoidance was effected by the "Step-down" method (Izquerdo, 1981) in an experimental unit consisting of a 30x30x40 cm chamber with an electrified floor having in its centre a plastic platform of 10x15x0.5 cm size. A rat was placed onto the platform and a latent period of its escape therefrom was recorded (in seconds). When escaping the platform onto the floor, the rat was subjected to an electric irritation on paws (0.5 mA, 10 seconds) that made it to climb the platform. The learning course took 6 sessions, each of 3 minutes duration. The conditional response was regarded as acquired if an animal remained on the platform for 1 minute.
The amnesic effect was produced immediately after learning course and 30 minutes thereafter the compound according to the present invention was administered in the doses of 1 and 3 mg/kg or (for comparison) pyracetam was administered in the doses of 100, 300, 600 and 1,000 mg/kg. The reproduction of the memory trace was assessed 24 hours after the electric shock and 2.5 hours after administration of scopolamine.

[4] = 5-days' administration, 10.0 mg/kg orally (dose from row order)
[5] = 5-days' administration, 25.0 mg/kg orally (dose from row order)
[6] = 18-days' administration, 10.0 mg/kg orally (dose from row order)
[7] = 18-days' administration, 25.0 mg/kg orally (dose from row order)
[8] = single administration, 10.0 mg/kg orally
[9] = single administration, 25.0 mg/kg orally

| Compound | Duration of immobilization, Seconds, M±m (white mice [1]; [4]) [s] | Duration of immobilization, % (white mice [1]; [4]) [%] | Duration of immobilization, Seconds, M±m (white mice [1]; [5]) [s] | Duration of immobilization, % (white mice [1]; [5]) [%] | Duration of immobilization, Seconds, M±m (white mice [1]; [6]) [s] | Duration of immobilization, % (white mice [1]; [6]) [%] | Duration of immobilization, Seconds, M±m (white mice [1]; [7]) [s] | Duration of immobilization, % (white mice [1]; [7]) [%] | Duration of immobilization, Seconds, M±m (white mice [1]; [8]) [s] | Duration of immobilization, % (white mice [1]; [8]) [%] | Duration of immobilization, % (white mice [1]; [9]) [%] | Average value of locomotor activity of a group of 5 mice for 10 minutes (male white mice; 5.0 mg/kg oral) | Average value of locomotor activity of a group of 5 mice for 10 minutes (male white mice; 10.0 mg/kg oral) | effect on the electroencephalogram (cats) | Stereotypy (tolal, for 4 measurements for 4 hours after hypodermal administration of d,l-amphetamine), % (white rats; oral dose 5.0 mg/kg) [%] | Stereotypy (tolal, for 4 measurements for 4 hours after hypodermal administration of d,l-amphetamine), % (white rats; oral dose 10.0 mg/kg) [%] | other results |
| --- | --- | --- | --- | --- | --- | --- | --- | --- | --- | --- | --- | --- | --- | --- | --- | --- | --- |
| CN(C)CCCN1c2ccccc2CCc2ccccc21 [Imipramine, N-(3-dimethylaminopropyl)-aminodibenzyl hydrochloride] | 92 ± 5.9 | 59 | 61 ± 6.3 | 39 | 96 ± 9.8 | 52 | 66 ± 9.8 | 36 | 131 ± 5.6 | 88 | 70 | 1,440.3±365.2 | 2,024.5±221.7 | synchronizing effect | 200 | 306 |  |
| Cc1ccc2c(c1)c1c3n2CCNC3CCC1 (stereo not shown) [Pyrazidol, 2,3,3a,4,5,6-hexahydro-8-methyl-1H-pyrazino(3,2,1-j,k)-carbazole hydrochloride] | 142 ± 5.7 | 87 | 116 ± 8.1 | 71 | 129 ± 8.0 | 70 | 112 ± 8.6 | 61 | 164 ± 5.9 | 93 | 82 | 1,440.0±380.2 | 1,926.0±119.9 |  | 165 | 210 | Duration of immobilization, Seconds, M±m (white mice [1]; [9]): 144 ± 9.9 s; time the drug remains in the brain tissues [2]: at most 1.5 hours; effect on the electroencephalogram of the cortex and subcortical structures of the brain (cats; 1 to 5 mg/kg intravenously, species not specified): predominantly activating effect; ED50 (white mice [3]): 20 mg/kg |
| CN(C)CCC=C1c2ccccc2CCc2ccccc21 [amitryptyline, reference compound] |  |  |  |  |  |  |  |  |  |  |  |  |  | synchronizing effect |  |  |  |
| NC(=O)CN1CCCC1=O [Pyracetam] |  |  |  |  |  |  |  |  |  |  |  |  |  |  |  |  | Number of rats, %, remained on the platform for 1 minute, 2.5 hours after administration of scopolamine (1 mg/kg hypodermally) (male rats; 100 mg/kg oral): 12±5.5%; Number of rats, %, remained on the platform for 1 minute, 1 day after electric shock (male rats; 100 mg/kg oral): 12±3.3%; Number of rats, %, remained on the platform for 1 minute, 2.5 hours after administration of scopolamine (1 mg/kg hypodermally) (male rats; 300 mg/kg oral): 13±1.6%; Number of rats, %, remained on the platform for 1 minute, 1 day after electric shock (male rats; 300 mg/kg oral): 13±4.2%; Number of rats, %, remained on the platform for 1 minute, 2.5 hours after administration of scopolamine (1 mg/kg hypodermally) (male rats; 600 mg/kg oral): 20±5.5%; Number of rats, %, remained on the platform for 1 minute, 1 day after electric shock (male rats; 600 mg/kg oral): 12±3.3%; Number of rats, %, remained on the platform for 1 minute, 1 day after electric shock (male rats; 1000 mg/kg oral): 46±6.4% |
